The values below come from ChEMBL document CHEMBL4765313, “Synthesis, in vitro evaluation and molecular docking of a new class of indolylpropyl benzamidopiperazines as dual AChE and SERT ligands for Alzheimer's disease” (Eur J Med Chem, 2020).

Where only a bound is given, the exact number is not on record here.

Data set [1] in a line: Solubility of compound at pH 7.4 at 1 to 100 uM. Type of data set: physicochemical. The note with it: buffer, pH 7.4, 100 µM; dose 1-100 µM.
Another data set addresses Acetylcholinesterase (Homo sapiens, UniProt P22303). Put plainly: Inhibition of human plasma AChE using acetylthiocholine iodide as substrate preincubated for 15 mins followed by substrate addition and measured after 10 mins by Ellman's method. In kind it is cell-free. In general terms: In Ellman's method for cholinesterases, released thiocholine reacts with DTNB.
The target of data set [2] is Sodium-dependent serotonin transporter (Homo sapiens, UniProt P31645). Put plainly: Displacement of [3H]paroxetine from human SERT expressed in human HEK293 cells incubated for 30 mins by liquid scintillation counting analysis. In kind it is cell-based.
Chain of Sodium-dependent serotonin transporter (P31645 whole entry): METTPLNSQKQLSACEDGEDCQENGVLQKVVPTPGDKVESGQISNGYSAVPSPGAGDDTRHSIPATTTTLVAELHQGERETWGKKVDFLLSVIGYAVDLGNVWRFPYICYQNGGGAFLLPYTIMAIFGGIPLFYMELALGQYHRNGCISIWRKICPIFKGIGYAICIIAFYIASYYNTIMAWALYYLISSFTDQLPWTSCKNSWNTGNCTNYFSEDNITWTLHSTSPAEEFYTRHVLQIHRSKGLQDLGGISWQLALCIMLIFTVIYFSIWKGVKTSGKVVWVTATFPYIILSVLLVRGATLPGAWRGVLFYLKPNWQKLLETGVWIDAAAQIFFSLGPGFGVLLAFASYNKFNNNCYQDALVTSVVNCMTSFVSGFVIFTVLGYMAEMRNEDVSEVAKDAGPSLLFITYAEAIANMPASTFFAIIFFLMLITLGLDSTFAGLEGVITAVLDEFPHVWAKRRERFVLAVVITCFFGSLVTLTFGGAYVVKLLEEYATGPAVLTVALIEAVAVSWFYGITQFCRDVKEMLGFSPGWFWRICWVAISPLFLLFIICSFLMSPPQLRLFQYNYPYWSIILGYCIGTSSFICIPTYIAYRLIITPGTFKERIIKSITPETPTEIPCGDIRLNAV
The next data set relates to HEK293. As to the kind of experiment: Cytotoxicity against human HEK293 cells assessed as reduction in cell viability incubated for 72 hrs by MTT assay. Particulars: HEK293, 72 h. In kind it is ADME, cell-based. (Tetrazolium assays rely on reduction of a dye to a coloured formazan, in cell work by metabolically active cells.)
For a further data set, the system named is SH-SY5Y. As to the kind of experiment: Cytotoxicity against human SH-SY5Y cells assessed as reduction in cell viability incubated for 72 hrs by MTT assay. In kind it is ADME, cell-based.
Data set [3] in a line: Reduction of beta-Amyloid40 level in mouse N2a cells transfected with human APP695 at 10 uM incubated for 16 hrs by ELISA relative to control. Type of data set: functional. Background: In an ELISA, binding on a coated surface is turned into a signal by an enzyme label.

In general, IC50 refers to the point on the concentration scale where inhibition reaches its midpoint. Broadly, the inhibition is the share of the control response that was lost under treatment.

Chain of Acetylcholinesterase (P22303 whole entry): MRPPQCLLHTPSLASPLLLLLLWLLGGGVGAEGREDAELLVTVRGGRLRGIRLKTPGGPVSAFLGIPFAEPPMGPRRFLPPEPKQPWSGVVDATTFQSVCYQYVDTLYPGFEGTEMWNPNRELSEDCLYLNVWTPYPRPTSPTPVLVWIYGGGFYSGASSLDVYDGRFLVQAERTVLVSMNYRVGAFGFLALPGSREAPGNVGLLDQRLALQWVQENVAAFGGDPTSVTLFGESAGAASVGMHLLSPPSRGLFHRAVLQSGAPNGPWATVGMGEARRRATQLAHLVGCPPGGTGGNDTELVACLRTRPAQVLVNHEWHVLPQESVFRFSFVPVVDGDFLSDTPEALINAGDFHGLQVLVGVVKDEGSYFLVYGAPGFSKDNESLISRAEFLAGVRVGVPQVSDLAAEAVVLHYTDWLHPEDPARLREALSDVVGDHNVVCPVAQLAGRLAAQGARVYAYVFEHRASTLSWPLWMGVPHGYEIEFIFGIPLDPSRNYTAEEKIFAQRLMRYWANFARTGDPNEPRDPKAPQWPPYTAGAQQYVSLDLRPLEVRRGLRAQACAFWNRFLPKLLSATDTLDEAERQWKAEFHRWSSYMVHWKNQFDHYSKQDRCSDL

With `O=C(CN1CCN(C(=O)c2ccc(F)cc2)CC1)N1CCN(CCCc2c[nH]c3ccc(F)cc23)CC1`, the solubility entry in data set [1] is “Soluble”. Further, the IC50 on Acetylcholinesterase turned out to be 3.4 µM; in data set [2], 212 µM; with HEK293, 102 µM; in the data set on SH-SY5Y, 121 µM.
On the same counts, the results for `COc1ccc2[nH]cc(CCCN3CCN(C(=O)CN4CCN(C(=O)c5ccc(Br)cc5)CC4)CC3)c2c1` are “Soluble”, greater than 50 µM, greater than 1000 µM, 80.5 µM and 150 µM.
For `COc1ccc(C(=O)N2CCN(CC(=O)N3CCN(CCCc4c[nH]c5ccc(F)cc45)CC3)CC2)cc1` the same measures were “Soluble”, 14.4 µM, 133 µM, 141 µM and 161 µM.
For `COc1ccc(C(=O)N2CCN(CC(=O)N3CCN(CCCc4c[nH]c5ccc(OC)cc45)CC3)CC2)cc1` the same measures were “Soluble”, greater than 50 µM, greater than 1000 µM, 190 µM and 190 µM.
Consider `COc1cccc(C(=O)N2CCN(CC(=O)N3CCN(CCCc4c[nH]c5ccc(OC)cc45)CC3)CC2)c1`, for which the solubility result in data set [1] was “Soluble”. For the same molecule, the IC50 is greater than 50 µM on Acetylcholinesterase, greater than 1000 µM in data set [2], greater than 200 µM in the data set with HEK293 and greater than 200 µM in the data set on SH-SY5Y.
`O=C(CN1CCN(C(=O)c2ccccc2)CC1)N1CCN(CCCc2c[nH]c3ccc(F)cc23)CC1`: the solubility result in data set [1] is “Soluble”. For the same molecule, the IC50 is greater than 50 µM at Acetylcholinesterase, 320 µM in data set [2], 148 µM in the data set with HEK293 and 146 µM in the data set with SH-SY5Y.
For `O=C(CN1CCN(C(=O)c2cccc(F)c2)CC1)N1CCN(CCCc2c[nH]c3ccccc23)CC1`, in data set [1], the solubility result is given as “Soluble”. For the same molecule, the IC50 against Acetylcholinesterase was greater than 50 µM; in data set [2], greater than 1000 µM; in the data set on HEK293, 182 µM; in the data set with SH-SY5Y, 165 µM.
On to `O=C(CN1CCN(C(=O)c2ccccc2F)CC1)N1CCN(CCCc2c[nH]c3ccccc23)CC1`, for which the solubility result in data set [1] is listed as “Soluble”. Moreover, the IC50 was 20.2 µM at Acetylcholinesterase, greater than 1000 µM in data set [2], 133 µM with HEK293 and 82.6 µM in the data set with SH-SY5Y.
`CN(C)CCCC1(c2ccc(F)cc2)OCc2cc(C#N)ccc21` (stereo not given) [CITALOPRAM]: the IC50 against Acetylcholinesterase is 73.3 µM; with HEK293, greater than 200 µM; with SH-SY5Y it was greater than 200 µM.
Take `COc1cccc(C(=O)N2CCN(CC(=O)N3CCN(CCCc4c[nH]c5ccc(F)cc45)CC3)CC2)c1`: in data set [1], the solubility entry is listed as “Soluble”. Also, the IC50 worked out at 19.4 µM at Acetylcholinesterase, 83 µM in data set [2], 87.1 µM in the data set with HEK293 and 79.4 µM in the data set on SH-SY5Y.
Take `COc1ccc2[nH]cc(CCCN3CCN(C(=O)CN4CCN(C(=O)c5cccc(Cl)c5)CC4)CC3)c2c1`: the solubility entry in data set [1] is recorded as “Soluble”. In addition, the IC50 is greater than 50 µM on Acetylcholinesterase, greater than 1000 µM in data set [2], 143 µM with HEK293 and greater than 200 µM with SH-SY5Y.
For `O=C(CN1CCN(C(=O)c2ccc(F)cc2)CC1)N1CCN(CCCc2c[nH]c3ccccc23)CC1` the same measures were “Soluble”, 39.4 µM, greater than 1000 µM, 141 µM and 188 µM.
For `O=C(CN1CCN(C(=O)c2cccc(F)c2)CC1)N1CCN(CCCc2c[nH]c3ccc(F)cc23)CC1` the same measures were “Soluble”, greater than 50 µM, 69 µM, 83 µM and 169 µM.
As to `COc1ccc2[nH]cc(CCCN3CCN(C(=O)CN4CCN(C(=O)c5ccccc5)CC4)CC3)c2c1`, in data set [1], the solubility result was “Soluble”. Moreover, the IC50 against Acetylcholinesterase was greater than 50 µM; in data set [2], greater than 1000 µM; in the data set on HEK293 it was greater than 200 µM; in the data set on SH-SY5Y, greater than 200 µM. In data set [3], this molecule came in with an inhibition at 10 µM of 37%.
In the case of `O=C(CN1CCN(C(=O)c2cccc(Br)c2)CC1)N1CCN(CCCc2c[nH]c3ccc(F)cc23)CC1`, the solubility result in data set [1] is “Soluble”. Besides, the IC50 against Acetylcholinesterase was 37.3 µM; in data set [2] it was 181 µM; in the data set with HEK293, 40.6 µM; with SH-SY5Y, 71.6 µM.
Regarding `O=C(CN1CCN(C(=O)c2ccc(Cl)cc2)CC1)N1CCN(CCCc2c[nH]c3ccccc23)CC1`, the solubility result in data set [1] is on record as “Soluble”. The IC50 at Acetylcholinesterase was 35.2 µM; in data set [2], greater than 1000 µM; with HEK293, 98.2 µM; with SH-SY5Y, 139 µM.
For `COc1ccc2[nH]cc(CCCN3CCN(C(=O)CN4CCN(C(=O)c5cccc(F)c5)CC4)CC3)c2c1` the same measures were “Soluble”, 37.3 µM, greater than 1000 µM, greater than 200 µM and greater than 200 µM.
On the same counts, the results for `O=C(CN1CCN(C(=O)c2ccc(Br)cc2)CC1)N1CCN(CCCc2c[nH]c3ccc(F)cc23)CC1` are “Soluble”, 39.4 µM, 9.2 µM, 60.5 µM and 47.4 µM.
As to `Cc1ccc(C(=O)N2CCN(CC(=O)N3CCN(CCCc4c[nH]c5ccc(F)cc45)CC3)CC2)cc1`, in data set [1], the solubility result is given as “Soluble”. For the same molecule, the half-inhibitory concentration (IC50) came to 3.6 µM on Acetylcholinesterase, 122 µM in data set [2], 141 µM with HEK293 and 119 µM in the data set on SH-SY5Y.
As for `COc1ccc2[nH]cc(CCCN3CCN(C(=O)CN4CCN(C(=O)c5ccc(F)cc5)CC4)CC3)c2c1`, in data set [1], the solubility entry is “Soluble”. Also, the IC50 was greater than 50 µM against Acetylcholinesterase, greater than 1000 µM in data set [2], greater than 200 µM in the data set with HEK293 and greater than 200 µM in the data set on SH-SY5Y.
With `O=C(CN1CCN(C(=O)c2cccc(Cl)c2)CC1)N1CCN(CCCc2c[nH]c3ccccc23)CC1`, in data set [1], the solubility result is on record as “Soluble”. The IC50 on Acetylcholinesterase was 32.4 µM; in data set [2], greater than 1000 µM; in the data set with HEK293, 99.1 µM; with SH-SY5Y, 120 µM.
The molecule `COc1cc2c(cc1OC)C(=O)C(CC1CCN(Cc3ccccc3)CC1)C2` (stereo not given) [DONEPEZIL] returned an IC50 in data set [2] greater than 1000 µM.
As for `Cc1ccc(C(=O)N2CCN(CC(=O)N3CCN(CCCc4c[nH]c5ccccc45)CC3)CC2)cc1`, the solubility result in data set [1] is “Soluble”. For the same molecule, the IC50 is 29.4 µM on Acetylcholinesterase, greater than 1000 µM in data set [2], 158 µM in the data set on HEK293 and greater than 200 µM in the data set with SH-SY5Y.
As to `O=C(CN1CCN(C(=O)c2ccc(Br)cc2)CC1)N1CCN(CCCc2c[nH]c3ccccc23)CC1`, the solubility entry in data set [1] is given as “Soluble”. The IC50 at Acetylcholinesterase was 35.7 µM; in data set [2] it was greater than 1000 µM; in the data set with HEK293, 71.9 µM; in the data set on SH-SY5Y, 59.3 µM.
Take `COc1ccc2[nH]cc(CCCN3CCN(C(=O)CN4CCN(C(=O)c5ccccc5Br)CC4)CC3)c2c1`: the solubility result in data set [1] is on record as “Soluble”. Besides, the IC50 was greater than 50 µM against Acetylcholinesterase, greater than 1000 µM in data set [2], 163 µM with HEK293 and 111 µM with SH-SY5Y.
For `COc1ccc2[nH]cc(CCCN3CCN(C(=O)CN4CCN(C(=O)c5ccc(Cl)cc5)CC4)CC3)c2c1` the same measures were “Soluble”, greater than 50 µM, greater than 1000 µM, 117 µM and 158 µM.
Regarding `COc1cccc(C(=O)N2CCN(CC(=O)N3CCN(CCCc4c[nH]c5ccccc45)CC3)CC2)c1`, in data set [1], the solubility entry is on record as “Soluble”. Moreover, the IC50 against Acetylcholinesterase is greater than 50 µM; in data set [2], greater than 1000 µM; in the data set with HEK293 it was 143 µM; with SH-SY5Y, greater than 200 µM.
Take `COc1ccc(C(=O)N2CCN(CC(=O)N3CCN(CCCc4c[nH]c5ccccc45)CC3)CC2)cc1`: in data set [1], the solubility entry is “Soluble”. The IC50 against Acetylcholinesterase is 25.1 µM; in data set [2], greater than 1000 µM; in the data set on HEK293 it was 156 µM; in the data set on SH-SY5Y, 148 µM.
For `O=C(CN1CCN(C(=O)c2ccc(Cl)cc2)CC1)N1CCN(CCCc2c[nH]c3ccc(F)cc23)CC1` the same measures were “Soluble”, 22.3 µM, 546 µM, 44.5 µM and 125 µM.
Consider `O=C(CN1CCN(C(=O)c2ccccc2)CC1)N1CCN(CCCc2c[nH]c3ccccc23)CC1`, for which, in data set [1], the solubility result is listed as “Soluble”. Also, the IC50 against Acetylcholinesterase was greater than 50 µM; in data set [2], greater than 1000 µM; with HEK293, greater than 200 µM; in the data set on SH-SY5Y, greater than 200 µM.
As for `COc1ccc2[nH]cc(CCCN3CCN(C(=O)CN4CCN(C(=O)c5ccc(C)cc5)CC4)CC3)c2c1`, the solubility entry in data set [1] is recorded as “Soluble”. Also, the IC50 against Acetylcholinesterase was greater than 50 µM; in data set [2] it was greater than 1000 µM; with HEK293, 147 µM; with SH-SY5Y it was greater than 200 µM.
With `O=C(CN1CCN(C(=O)c2ccccc2Br)CC1)N1CCN(CCCc2c[nH]c3ccc(F)cc23)CC1`, the solubility entry in data set [1] is on record as “Soluble”. The IC50 is 33.3 µM on Acetylcholinesterase, 1.9 µM in data set [2], 77.1 µM with HEK293 and 79.1 µM in the data set with SH-SY5Y.
On the same counts, the results for `COc1ccc2[nH]cc(CCCN3CCN(C(=O)CN4CCN(C(=O)c5cccc(Br)c5)CC4)CC3)c2c1` are “Soluble”, greater than 50 µM, greater than 1000 µM, 57 µM and 105 µM.
For `O=C(CN1CCN(C(=O)c2cccc(Cl)c2)CC1)N1CCN(CCCc2c[nH]c3ccc(F)cc23)CC1` the same measures were “Soluble”, 18.4 µM, 149 µM, 66.2 µM and 59.8 µM.
